Laboratory results from patent US20170216315A1 (priority 2016, published 2017).
Marks after values point to notes of the source that are not given here.

Key:
[1] = test system: acetaldehyde dehydrogenase (ALDH); experiment: Activity of ALDH in liver homogenate; type: in vivo, mice; conditions: EK100 1, 5, 10 mg/kg/day vs control group; p<0.05; FIG. 14B
Procedure: D-3 were analyzed. The operation steps were as follows: (i) 100 μl of liver homogenate and 1 ml of sodium pyrophosphate buffer (pH 8.8, 1 mM NAD^+, 0.2 mM 4-methylpyrazole, 1 mM MgCl2, 2 μM rotenone, 1% Triton X-100) were well mixed; the mixture was left standing in the dark at room temperature for 20 minutes; and then the absorbance (A) of the mixture was measured at 340 nm wavelength; (ii) 100 μl of liver homogenate and 1 ml of sodium pyrophosphate buffer (pH 8.8, 1 mM NAD^+, 0.2 mM 4-methylpyrazole, 1 mM MgCl2, 2 μM rotenone, 1% Triton X-100, 5 mM acetaldehyde) were well mixed; the mixture was left standing in the dark at room temperature for 20 minutes, and then the absorbance (B) of the mixture was measured at 340 nm wavelength; (iii) absorbance (A) and absorbance (B) were substituted into formula 3 below to calculate the activity of ALDH (μmole/min/mg protein).

[2] = test system: male C57BL/6 mice; experiment: Appearance and H&E staining of mouse liver; type: in vivo; conditions: EK100 1, 5, 10 mg/kg/day vs EtOH group
Procedure: C-4. After “C-3” was completed, the mice were sacrificed. The weights of the mice hearts, livers, kidneys, spleens, and abdominal and epididymal fat pads were measured and recorded; the mice livers were washed with sterilized saline, and then the liver appearances were recorded by a camera. The collected organs and feces were stored at −80° C. for the following analysis (recording, sample collection and storage were conducted for all of the 8 mice from each group).
The photographs of the mouse liver appearance of each group recorded in [Preparation Examples]
Additionally, the photographs of stained mouse liver of each group recorded in [Preparation Examples]

[3] = test system: male C57BL/6 mice; experiment: Amounts of TAG, TC and bile acid in feces; type: in vivo; conditions: EK100 1, 5, 10 mg/kg/day vs EtOH group, feces of end of week 3, p<0.05
[4] = Alcohol concentration in mouse serum; type: in vivo, mice; conditions: EK100 1, 5, 10 mg/kg/day vs EtOH group; p<0.05; FIG. 15
Procedure: C-3. At the end of week 4, the mice were fasted for 8 hours. Then, mice blood was collected by orbital sinus blood collection with capillary blood collection needles (for all of the 8 mice from each group). The mice blood was left standing for 1 hour and then centrifuged by a refrigerated microcentrifuge (Kubota corporation, model number: 3700) to separate the supernatant serum. The supernatant serum was stored at −80° C. for the following analysis.
Mouse serum samples of each group provided in [Preparation Examples] C-2 were well mixed with ADH and NAD^+ reagents in a commercial kit (Dade-Berhring company, England, Emit® II Plus Ethyl alcohol assay), and then the alcohol concentrations in the above serum samples were measured by an automatic biochemistry analyzer (Olympus company, Japan, AU2700) at 340 nm wavelength.

[5] = test system: glutathione peroxidase (GPx); experiment: Activity of GPx in mouse liver; type: in vivo, mice; conditions: for Activity of GPx: liver homogenate, alcoholic liquid diet, 4 weeks
[6] = test system: male C57BL/6 mice; experiment: Amounts of TAG and TC in liver; type: in vivo; conditions: EK100 1, 5, 10 mg/kg/day vs EtOH group; p<0.05; FIG. 2B
[7] = test system: aspartate aminotransferase (AST); experiment: Activity of AST in serum; type: in vivo, mice; conditions: EK100 1, 5, 10 mg/kg/day vs EtOH group; p<0.05; FIG. 8
Excerpt: It has been known that both aspartate aminotransferase (AST) and alanine aminotransferase (ALT) are amino acid metabolic enzymes, which are widely present in the heart, liver, skeletal muscle, kidney and brain. When cells in organs are injured, AST and ALT will be released into the blood. Therefore, the activities of AST and ALT can be used as the injury markers of the above organs to detect organ injuries, wherein the higher activities of AST and ALT represent that organ injuries are more serious. For example, there is much more ALT in the liver. A higher activity of ALT in the liver would indicate a more serious injury.
To understand the effects of alcohol consumption and ergostatrien-3β-ol intake on the injury conditions of mice organs, mouse serum samples of each group provided in [Preparation Examples] C-2 (200 μl per group) were placed into automatic dry-biochemistry analyzer (Arkray, Inc., Japan, Spotechem™ EZ, SP-4430) with AST/ALT expert analytic test paper (Arkray, Inc., Japan, Spotechem™ II) to detect the activities of AST and ALT.

[8] = test system: IL-1β; experiment: Concentration of IL-1β in liver (ELISA); type: in vivo, mice; conditions: EK100 1, 5, 10 mg/kg/day vs EtOH group; p<0.05; FIG. 9B
Excerpt: D-3 were taken and diluted with Calibrator Diluent RD 5-17 to ⅓ of the original concentration respectively, and then a Quantikine® Rat TNF-α or a Quantikine® Rat IL-1β commercial kit (purchased from R&D Systems company, United States) was used for the Enzyme-linked immune-sorption assay (ELISA) to measure the amounts of tumor necrosis factor-alpha (TNF-α) and interleukin-1β (IL-1β) therein. […]

## CC(C)[C@@H](C)/C=C/[C@@H](C)[C@H]1CC[C@H]2C3=CCC4C[C@@H](O)CC[C@]4(C)C3=CC[C@]12C (stereo partly drawn) [EK100]
[1]
  Activity of ALDH in liver compared to control: significantly increased
[2]; H&E staining, FIGS. 7A-7E
  Number of fat vacuoles in liver tissue compared to EtOH: markedly decreased
[2]; liver appearance, FIGS. 6A-6E
  Whitening phenomenon of liver compared to EtOH: decreased
[3]; FIG. 2C
  Amount of TAG in feces compared to EtOH: significantly increased
  Amount of TC in feces compared to EtOH: significantly increased
[3]; FIG. 3
  Amount of bile acid in feces compared to EtOH: significantly increased
[4]
  Alcohol concentration in serum compared to EtOH: significantly decreased
[5]; EK100 10 mg/kg/day (EK100_10X) vs EtOH group, p<0.05
  Activity of GPx in liver compared to EtOH: significantly increased
[5]; EK100_1X: 1 mg/kg/day gavage
  Activity of GPx: 114.16 ± 2.40^b unit/mg protein
[5]; EK100_5X: 5 mg/kg/day gavage
  Activity of GPx: 110.74 ± 3.52^b unit/mg protein
[5]; EK100_10X: 10 mg/kg/day gavage
  Activity of GPx: 131.89 ± 6.83^a unit/mg protein
[6]
  Amount of TAG in liver compared to EtOH: significantly decreased
  Amount of TC in liver compared to EtOH: significantly decreased
[7]
  Activity of AST in serum compared to EtOH: significantly decreased
[8]
  Concentration of IL-1β in liver compared to EtOH: significantly decreased
